Assay results: PMC12169614, “Exploring Long Arm Amide-Linked Side Chains in the Design of Antifungal Azole Inhibitors of Sterol 14α-Demethylase (CYP51)” (Journal of Medicinal Chemistry, 2025)

Assays:
Y2411 Endog. ScCYP51 = test: MIC80 determination, strain Y2411; assay type: cell-based, S. cerevisiae; details: Saccharomyces cerevisiae
In short: (§1)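 Seed at OD600 0.005 (1.5 × 10^4 CFU); shake at 200 rpm, 30 °C; stop at 48 h (S. cerevisiae) or 24 h (C. albicans); measure OD600 to derive MIC80.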

Y2300 OE ScCYP51 = test: MIC80 determination, strain Y2300; assay type: cell-based, S. cerevisiae; details: Saccharomyces cerevisiae
In short: as §1

Y2301 OE ScCYP51 Y140F = test: MIC80 determination, strain Y2301; assay type: cell-based, S. cerevisiae; details: Saccharomyces cerevisiae
In short: as §1

Y525 OE CaMDR1a = test: MIC80 determination, strain Y525; assay type: cell-based, S. cerevisiae
In short: as §1

Y570 OE CaCDR1B = test: MIC80 determination, strain Y570; assay type: cell-based, S. cerevisiae
In short: as §1

Y1 = test: MIC80 determination, C. albicans clinical isolate Y1; assay type: cell-based; details: Candida albicans, pH 7, 24 h
In short: as §1

Y2721 OE CpCYP51 = test: MIC80 determination, strain Y2721; assay type: cell-based, S. cerevisiae
In short: as §1

Y2716 OE CpCYP51 Y132F = test: MIC80 determination, strain Y2716; assay type: cell-based, S. cerevisiae
In short: as §1

Y2374 OE CgCYP51 = test: MIC80 determination, strain Y2374; assay type: cell-based, S. cerevisiae; details: Saccharomyces cerevisiae
In short: as §1

Y433 OE CgCDR1 = test: MIC80 determination, strain Y433; assay type: cell-based, S. cerevisiae; details: Saccharomyces cerevisiae
In short: as §1

Y2767 OE CauCYP51 = test: MIC80 determination, strain Y2767; assay type: cell-based, S. cerevisiae
Description: (§2) Cells were seeded at an OD600 nm of 0.005 (1.5 × 10^4 CFU), and the plates were incubated at 30 °C with shaking at 200 rpm for 48 h for S. cerevisiae strains and 24 h for C. albicans . Cell growth was assessed by measuring the OD600 nm using a Synergy 2 multimode plate reader (BioTek Instruments, VT, USA). Each MIC80 was determined using triplicate measurements for pools of 4 clones of each strain in three separate experiments.

Y2769 OE CauCYP51 K143R = test: MIC80 determination, strain Y2769; assay type: cell-based, S. cerevisiae
Description: as §2

2711 CnCYP51 OE CnCPR = test: MIC80 determination, strain 2711; assay type: cell-based, S. cerevisiae
In short: as §1

[1] = test system: Y2746 OE AfCYP51A AfCPR AfERG6; test: MIC80 determination, strain Y2746; assay type: cell-based, S. cerevisiae; details: Saccharomyces cerevisiae
In short: as §1

[2] = test system: Y2747 OE AfCYP51B AfCPR AfERG6; test: MIC80 determination, strain Y2747; assay type: cell-based, S. cerevisiae
In short: as §1

[3] = test system: Y2513 ScCYP51 Y140H mutant; test: Agarose (disk) diffusion assay, strain Y2513; assay type: cell-based, S. cerevisiae; details: 10 nmol/disk, 30 °C, 48 h
Description: (§3) Final compounds were screened as racemic mixtures using agarose diffusion assays to visualize their inhibitory activity against a panel of recombinant S. cerevisiae strains i.e., S. cerevisiae strains expressing control levels of wild-type CYP51 (ScCYP51), overexpressed wild-type ScCYP51, overexpressed azole-resistant ScCYP51 Y140F/H mutations and overexpressed C. albicans efflux pumps MDR1a or CDR1B (Figure and Table S1).
(§4) The susceptibilities of S. cerevisiae and Candida species strains to azole compounds were observed as zones of growth inhibition in agarose diffusion assays. The disk diffusion assays were carried out as described by Keniya et al. Complete supplement mixture (CSM) agarose (0.6% agarose [wt/vol]; 20 mL of synthetic defined medium (SD); pH 6.8–7) was solidified in a rectangular Petri dish which was overlaid with CSM agarose (0.6% [wt/vol]; 5 mL; pH 6.8–7) seeded with yeast cells at an optical density (OD600) of 0.008 (118,000 cells per 1 mL of overlay). Azole compounds (10 nmol/disk) were applied to sterile BBL paper disks (Becton Dickinson Co., Sparks, MD) and placed on solidified overlays. Cell growth was assessed after incubation at 30 °C for 48 h.

[4] = test system: Y525 MFS efflux pump CaMDR1a overexpressed; test: Agarose (disk) diffusion assay, strain Y525; assay type: cell-based, S. cerevisiae; details: 10 nmol/disk, 30 °C, 48 h
Description: as §3, §4

[5] = test system: Y570 ABC efflux pump CaCDR1B overexpressed; test: Agarose (disk) diffusion assay, strain Y570; assay type: cell-based, S. cerevisiae; details: 10 nmol/disk, 30 °C, 48 h
Description: as §3, §4

wild-type CaCYP51 = wild-type CaCYP51 (Candida albicans, UniProt P10613); test: Reconstituted CYP51 activity assay, wild type; assay type: biochemical, C. albicans; details: 1 μM CaCyp51, 50 μM lanosterol; duplicate, mean ± SD
Sequence of wild-type CaCYP51 (P10613 whole entry): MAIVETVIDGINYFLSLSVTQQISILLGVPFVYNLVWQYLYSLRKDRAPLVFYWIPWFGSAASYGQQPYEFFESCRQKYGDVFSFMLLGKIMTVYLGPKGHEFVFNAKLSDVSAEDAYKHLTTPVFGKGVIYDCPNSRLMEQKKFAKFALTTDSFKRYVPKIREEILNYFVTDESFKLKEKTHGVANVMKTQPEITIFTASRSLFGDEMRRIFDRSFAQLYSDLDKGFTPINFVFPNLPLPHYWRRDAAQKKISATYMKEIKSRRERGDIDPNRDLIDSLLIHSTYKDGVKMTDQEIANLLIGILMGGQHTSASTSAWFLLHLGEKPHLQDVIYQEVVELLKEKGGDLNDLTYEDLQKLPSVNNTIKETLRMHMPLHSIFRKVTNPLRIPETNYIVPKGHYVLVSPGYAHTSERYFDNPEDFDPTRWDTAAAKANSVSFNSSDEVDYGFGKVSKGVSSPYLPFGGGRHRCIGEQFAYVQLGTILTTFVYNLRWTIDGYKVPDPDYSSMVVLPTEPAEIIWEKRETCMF
Description: The reconstituted CYP51 assay previously described contained 1 μM CaCyp51, 2 μM Homo sapiens cytochrome P450 reductase and 50 μM lanosterol in a final volume of 500 μL. After the addition of azole in DMSO (2.5 μL), reactions were incubated at 37 °C for 10 min prior to initiation by the addition of 100 μL 20 mM β-NADPH-Na4. Sterol substrates and products were extracted with ethyl acetate, derivatized with N,O-bis(trimethylsilyl)-trifluoroacetamide (BSTFA)–trimethylchlorosilane (TMCS) (99:1) in the presence of anhydrous pyridine, and analyzed by GC/MS as described previously. IC50 determinations were performed in duplicate. Nonlinear regression of inhibitor concentration vs normalized response was calculated by GraphPad Prism 10.4.0 for Windows (GraphPad Software, Boston, Massachusetts, USA, www.graphpad.com).

CYP1A2 = CYP1A2 (Homo sapiens, UniProt P05177); test: CYP IC50 profile, CYP1A2; assay type: biochemical; details: human liver drug metabolizing enzyme; read-out: CYP IC50 1A2
Sequence of CYP1A2 (P05177 whole entry): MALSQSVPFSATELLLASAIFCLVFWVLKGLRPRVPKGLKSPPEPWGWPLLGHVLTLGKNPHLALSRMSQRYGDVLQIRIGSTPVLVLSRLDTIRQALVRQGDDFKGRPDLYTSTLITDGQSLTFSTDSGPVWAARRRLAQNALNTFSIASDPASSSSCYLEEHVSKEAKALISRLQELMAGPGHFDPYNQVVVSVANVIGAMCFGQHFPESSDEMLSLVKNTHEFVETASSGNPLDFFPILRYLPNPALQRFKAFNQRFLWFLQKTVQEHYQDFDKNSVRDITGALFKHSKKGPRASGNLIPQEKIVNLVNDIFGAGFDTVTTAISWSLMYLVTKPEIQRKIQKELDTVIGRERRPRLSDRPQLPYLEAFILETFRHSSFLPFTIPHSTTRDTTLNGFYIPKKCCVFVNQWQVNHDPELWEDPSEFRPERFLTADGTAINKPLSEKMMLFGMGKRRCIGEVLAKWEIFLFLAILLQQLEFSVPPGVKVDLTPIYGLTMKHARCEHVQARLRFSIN

CYP2C19 = CYP2C19 (Homo sapiens, UniProt P33261); test: CYP IC50 profile, CYP2C19; assay type: biochemical; details: human liver drug metabolizing enzyme; read-out: CYP IC50 2C19
Sequence of CYP2C19 (P33261 whole entry): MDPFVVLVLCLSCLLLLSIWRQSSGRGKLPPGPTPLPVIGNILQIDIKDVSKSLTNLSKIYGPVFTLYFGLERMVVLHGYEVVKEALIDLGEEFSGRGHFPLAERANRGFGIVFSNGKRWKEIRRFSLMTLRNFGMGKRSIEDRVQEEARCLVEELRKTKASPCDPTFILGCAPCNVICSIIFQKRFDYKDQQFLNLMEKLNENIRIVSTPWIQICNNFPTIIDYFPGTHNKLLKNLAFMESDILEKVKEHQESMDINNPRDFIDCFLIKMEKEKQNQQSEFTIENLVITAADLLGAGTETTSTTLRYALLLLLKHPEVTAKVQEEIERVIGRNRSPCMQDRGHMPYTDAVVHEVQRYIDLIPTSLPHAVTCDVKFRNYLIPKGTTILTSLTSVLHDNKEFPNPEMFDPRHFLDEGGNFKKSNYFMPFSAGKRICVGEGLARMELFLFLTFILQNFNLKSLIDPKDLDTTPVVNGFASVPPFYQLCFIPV

CYP2D6 = CYP2D6 (Homo sapiens, UniProt P10635); test: biochemical; details: human liver drug metabolizing enzyme; read-out: CYP IC50 2D6
Sequence of CYP2D6 (P10635 whole entry): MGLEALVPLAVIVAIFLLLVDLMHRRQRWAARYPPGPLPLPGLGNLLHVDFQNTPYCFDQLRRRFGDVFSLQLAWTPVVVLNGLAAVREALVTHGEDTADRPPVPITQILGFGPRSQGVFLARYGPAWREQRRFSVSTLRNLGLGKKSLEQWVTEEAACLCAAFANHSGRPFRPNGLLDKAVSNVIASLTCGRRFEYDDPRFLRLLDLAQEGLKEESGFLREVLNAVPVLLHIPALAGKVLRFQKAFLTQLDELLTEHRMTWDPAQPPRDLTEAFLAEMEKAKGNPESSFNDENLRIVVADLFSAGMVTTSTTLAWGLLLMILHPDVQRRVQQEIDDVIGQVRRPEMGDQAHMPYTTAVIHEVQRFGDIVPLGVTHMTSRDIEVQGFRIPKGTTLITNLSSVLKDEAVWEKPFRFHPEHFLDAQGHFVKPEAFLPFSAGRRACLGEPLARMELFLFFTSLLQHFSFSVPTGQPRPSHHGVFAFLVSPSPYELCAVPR

[6] = Saccharomyces cerevisiae, 48 h, pH 6.8

O=C(NCC(O)(Cn1cncn1)c1ccc(F)cc1F)c1ccc(-c2ccc(OC(F)(F)F)cc2)cc1 (stereo not shown) [Compound 22, N-(2-(2,4-Difluorophenyl)-2-hydroxy-3-(1H-1,2,4-triazol-1-yl)propyl)-4’-(trifluoromethoxy)-[1,1’-biphenyl]-4-carboxamide]
MIC80 (Y2411 Endog. ScCYP51; strain Y2411 Endog. ScCYP51, SD pH 6.8, 30 °C, 48 h): 0.03 ± 0.023 µM | MIC (Y2411 Endog. ScCYP51; supplement csv, read-out: MIC (nM) S. cerevisiae Y2411): 30 ± 23 nM | MIC80 (Y2300 OE ScCYP51; 48 h, pH 6.8): 0.114 ± 0.014 µM | MIC (Y2300 OE ScCYP51; read-out: MIC (nM) S. cerevisiae Y2300): 114 ± 14 nM | MIC80 (Y2301 OE ScCYP51 Y140F; 48 h, pH 6.8): 0.093 ± 0.046 µM | MIC (Y2301 OE ScCYP51 Y140F; read-out: MIC (nM) S. cerevisiae Y2301): 93 ± 46 nM | MIC80 (Y525 OE CaMDR1a; [6]): 0.451 µM | MIC (Y525 OE CaMDR1a; read-out: MIC (nM) C. albicans model Y525): 451 nM | MIC (Y570 OE CaCDR1B; Candida albicans, read-out: MIC (nM) C. albicans model Y570): 5800 nM | MIC80 (Y570 OE CaCDR1B; [6]): 5.8 µM | MIC80 (Y1): 0.067 µM | MIC80 (Y2721 OE CpCYP51; Saccharomyces cerevisiae): 0.099 µM | MIC (Y2721 OE CpCYP51; read-out: MIC (nM) C. parapsilosis model Y2721): 99 nM | increase in resistance owing to the CpCYP51 Y132F mutation (Y2716 OE CpCYP51 Y132F; MIC80 Y2716 versus Y2721): 2 fold | MIC80 (Y2716 OE CpCYP51 Y132F; Saccharomyces cerevisiae): 0.21 ± 0.043 µM | MIC80 (Y2374 OE CgCYP51): 0.101 µM | MIC (Y2374 OE CgCYP51; read-out: MIC (nM) C. glabrate model Y2374): 101 nM | MIC80 (Y433 OE CgCDR1): 5.85 µM | MIC (Y2767 OE CauCYP51; Candidozyma auris, read-out: MIC (nM) C. auris model Y2767): 110 ± 10 nM | MIC80 (Y2767 OE CauCYP51; Saccharomyces cerevisiae): 0.11 ± 0.01 µM | MIC (Y2769 OE CauCYP51 K143R; Candidozyma auris, read-out: MIC (nM) C. auris model Y2769): 225 ± 33 nM | MIC80 (Y2769 OE CauCYP51 K143R; Saccharomyces cerevisiae): 0.225 ± 0.033 µM | MIC80 (2711 CnCYP51 OE CnCPR; Saccharomyces cerevisiae): 0.018 µM | MIC (2711 CnCYP51 OE CnCPR; read-out: MIC (nM) C. neoformans model Y2711): 18 nM | MIC80 [1]: 12.4 µM | MIC ([2]; Aspergillus fumigatus, read-out: MIC (nM) A. fumigatus model Y2747): 72 ± 29 nM | MIC80 ([2]; Saccharomyces cerevisiae): 0.072 ± 0.029 µM | zone of growth inhibition (inhibitory activity in words) [3]: unaffected inhibition zone size | zone of growth inhibition (inhibitory activity in words) [4]: no effect on its potency | zone of growth inhibition (inhibitory activity in words) [5]: conferred resistance | IC50 (wild-type CaCYP51): 0.669 µM | IC50 (CYP1A2): 9.33 ± 1.39 µM | IC50 (CYP2C19): 14.5 ± 2.23 µM | IC50 (CYP2D6): > 25 µM
